Data on one compound can be found in article PMC8917853, “Synthesis and evaluation of ^99mTc-DOTA-ARA-290 as potential SPECT tracer for targeting cardiac ischemic region” (Iranian Journal of Basic Medical Sciences, 2021).

Series [1] deals with T1, EPOR-BcR receptor on H9c2 myocardial cells (Rattus norvegicus, UniProt Q07303+Q78ZF5).
T1 construct: endogenous in cells; host or cells: H9c2 myocardial cells (hypoxic vs normoxic culture)
T1 sequence (Q07303 25-507): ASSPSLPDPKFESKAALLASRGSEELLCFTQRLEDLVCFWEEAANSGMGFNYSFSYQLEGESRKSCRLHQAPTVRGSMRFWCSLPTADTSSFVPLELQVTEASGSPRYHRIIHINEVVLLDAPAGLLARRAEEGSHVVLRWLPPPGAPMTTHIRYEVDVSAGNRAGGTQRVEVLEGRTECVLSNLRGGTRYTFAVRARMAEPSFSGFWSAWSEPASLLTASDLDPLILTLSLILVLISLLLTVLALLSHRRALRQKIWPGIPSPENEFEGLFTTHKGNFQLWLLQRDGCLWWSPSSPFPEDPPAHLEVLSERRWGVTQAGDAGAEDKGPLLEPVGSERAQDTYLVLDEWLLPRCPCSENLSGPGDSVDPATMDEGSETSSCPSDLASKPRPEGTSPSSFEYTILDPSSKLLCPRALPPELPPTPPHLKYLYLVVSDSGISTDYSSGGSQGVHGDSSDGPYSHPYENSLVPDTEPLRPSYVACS
T1 sequence (Q78ZF5 29-896): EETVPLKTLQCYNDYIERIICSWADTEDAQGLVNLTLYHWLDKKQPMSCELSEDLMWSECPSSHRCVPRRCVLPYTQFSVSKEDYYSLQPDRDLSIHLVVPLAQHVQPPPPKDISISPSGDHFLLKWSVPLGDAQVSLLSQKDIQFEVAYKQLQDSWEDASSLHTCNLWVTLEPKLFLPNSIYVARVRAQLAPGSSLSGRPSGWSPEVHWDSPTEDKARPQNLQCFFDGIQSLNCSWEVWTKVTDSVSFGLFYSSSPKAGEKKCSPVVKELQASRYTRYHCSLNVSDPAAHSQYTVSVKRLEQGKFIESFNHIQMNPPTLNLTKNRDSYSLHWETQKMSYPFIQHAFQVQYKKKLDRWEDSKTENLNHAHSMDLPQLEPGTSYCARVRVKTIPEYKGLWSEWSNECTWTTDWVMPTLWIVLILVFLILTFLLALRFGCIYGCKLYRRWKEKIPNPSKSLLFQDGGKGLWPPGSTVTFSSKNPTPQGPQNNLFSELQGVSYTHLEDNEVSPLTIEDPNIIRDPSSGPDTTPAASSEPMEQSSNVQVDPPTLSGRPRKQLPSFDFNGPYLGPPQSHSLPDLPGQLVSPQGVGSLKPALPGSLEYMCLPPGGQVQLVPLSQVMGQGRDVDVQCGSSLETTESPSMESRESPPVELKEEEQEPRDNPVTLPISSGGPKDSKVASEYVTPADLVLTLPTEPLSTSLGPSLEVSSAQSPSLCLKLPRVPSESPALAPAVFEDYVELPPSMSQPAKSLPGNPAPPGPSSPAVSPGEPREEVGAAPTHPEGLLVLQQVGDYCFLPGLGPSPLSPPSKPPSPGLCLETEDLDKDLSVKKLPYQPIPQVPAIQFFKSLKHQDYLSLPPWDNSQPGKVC
The experiment in a line: In vitro hypoxia test: binding to hypoxic vs normoxic H9c2 myocardial cells. It counts as cell-based. The settings on record: for binding to hypoxic cells relative to normoxic cells: H9c2 cells, 250 pmol radiopeptide, 37 °C, triplicate. The protocol:
H9c2 myocardial cells were separated into three groups. The normoxic control group (negative EPOR-BcR receptor) was cultured in a normoxic (20% O2) culture medium. Hypoxic group (positive EPOR-BcR receptor) was cultured in a different time interval (1-4 hr) hypoxic culture condition (5% CO2 and 2% O2) and blocking test (specific binding assay) in the hypoxic condition. […] The cells for triplicate were placed inside confocal plates (Costar) at a density of 1 × 10^5 per well, then treated with almost 250 pmol of ^99mTc-DOTA-(Lys-Dabcyl^6,Phe^7)-ARA-290 subject to 0.025 MBq at 37 °C. Incubation was disrupted with 1 ml of chilled PBS. Afterward, the cells were separated by […] to measure the cell-bound level of ^99mTc-DOTA-(Lys-Dabcyl^6,Phe^7)-ARA-290 by a scintillator. EPOR-BcR receptor blocking was done by using 50-fold extra of the unlabeled peptide in 30 min before the injection of the labeled peptide.

The conditions of series [2]: sodium chloride 0.9%, ambient temperature, up to 6 hr, TLC, specific activity 18.5 MBq/nmol, mean n=3. Here is the method:
As an in vitro stability evaluation, radiolabeled peptides (specific activity= 18.5 MBq/nmol) were added to sodium chloride 0.9 % isotonic solution ([24]). After incubation at ambient temperature, samples were taken out at 0.06, 0.5, 1, 2, 4, and 6 hr. The radiochemical purity of the mixture was investigated by a TLC stripe. To survey biostability, 100 μl of the labeled compound was added to fresh human serum (1 ml) and incubated (37 °C, 5% CO2) at different time points (4, 30, 60, 120, 240, and 360 min). 100 μl aliquots of serum samples were then incubated with 100 μl of ethanol. Samples were centrifuged at 5000 rpm for 5 min at 37 °C and 20 µl supernatant was removed to assess the degradation of ^99mTc labeled peptide by TLC.

The subject of the next series is cardiac ischemic region. Kind of series: Planar SPECT scintigraphy in ischemic and normal rats. The format is in vivo, rat. The settings on record: 200 MBq. Here is the method:
30 and 90 min post-injection of ^99mTc-DOTA-(Lys-Dabcyl^6,Phe^7)-ARA-290 (200 MBq) into ischemic and normal rats, planar images were captured by a dual-head SPECT system (E.cam, Siemens, Germany) that was arranged with low energy high-resolution collimators, a 128*128 matrix size, and a 20% energy window set at 140 keV ([29]).

Residues, ends and D or L forms follow the SMILES beside them. *: point of attachment. DOTA = O=C(O)CN1CCN(CC(=O)O)CCN(CC(=O)*)CCN(CC(=O)O)CC1; X1 = CN(C)c1ccc(/N=N/c2ccc(C(=O)*)cc2)cc1

With `CC(C)C[C@H](NC(=O)[C@H](Cc1ccccc1)NC(=O)[C@H](CCCCNC(=O)c1ccc(/N=N/c2ccc(N(C)C)cc2)cc1)NC(=O)[C@H](CCC(=O)O)NC(=O)[C@H](CC(C)C)NC(=O)[C@H](CCC(N)=O)NC(=O)[C@H](CCC(=O)O)NC(=O)[C@H](CCC(=O)O)NC(=O)CN1CCN(CC(=O)O)CCN(CC(=O)O)CCN(CC(=O)O)CC1)C(=O)N[C@@H](CC(N)=O)C(=O)N[C@@H](CO)C(=O)N[C@@H](CO)C(=O)O` [99mTc-DOTA-(Lys-Dabcyl6,Phe7)-ARA-290, metal not drawn] ({DOTA}-EEQLEK(X1)FLNSS-OH; C-terminus assumed), the “binding to hypoxic cells relative to normoxic cells” value in series [1] (hypoxia 2% O2 vs normoxia 20% O2, 1 hr) is on record as 3 fold; in series [1] (hypoxia 2% O2 vs normoxia 20% O2, 4 hr), around 5 fold. In addition, in series [1] (hypoxic H9c2 cells, 50 mol excess of unlabeled peptide 30 min before radiopeptide), the “binding to hypoxic cells in blocking test” value was “the same result was obtained for the normoxic cells”. Moreover, the “binding affinity to H9c2 cells under normoxic situations” value in series [1] (normoxic 20% O2, H9c2 cells) is recorded as “very low”. The “saline stability of radiopeptide (radiochemical purity remaining)” value in series [2] worked out at 95%. Also, the “scintigraphy: ischemic region uptake” value in the series on cardiac ischemic region (cardiac ischemic rats, planar images at 30 and 90 min post-injection) is listed as “considerable ischemic region uptake”. The “scintigraphy: cardiac accumulation” value in the series on cardiac ischemic region (normal rat, 30 min post-injection) is recorded as “not detectable”.
